This note sets out measurements from patent US10703784B2, “Antigens and epitopes derived from Mycobacterium tuberculosis” (priority 2011, dated 2020).

Holding throughout (type): cell-based, human
Test [1] has as its system PBMCs depleted of CD4+ or CD8+ T cells. As to conditions: phenotype of the responding T cells per donor; n.d. = assay not done.
The test system of test [2] is PBMCs from LTBI donors (IFN-γ production). As to conditions: individual MTB epitope peptide; one value per responding LTBI donor.
In test [3] the test system is CD4-purified cells from LTBI donors. As to conditions: range over donors analyzed.

Where “and” joins values, the source holds several entries; their conditions need not be identical. Equal entries are not always repeated.

On to ADYLRMWIQAATVMS, for which the T cell phenotype entry in test [1] is “CD4 (5×) and undetectable”. Moreover, the SFC in test [2] was 375.0 and 35.0 and 128.3 and 48.3 and 26.7 and 75.0.
Take GEEYLILSARDVLAV: the T cell phenotype entry in test [1] was “CD4 (4×) and undetectable (2×)”. Besides, the SFC in test [2] is 136.7 and 60.0 and 145.0 and 151.7 and 45.0 and 53.3.
SSYAATEVANAAAAS: the T cell phenotype result in test [1] is on record as “CD4”. In test [2], this sequence returned an SFC of 60.0.
Turning to ALLPRAGAAAAAALP, the T cell phenotype result in test [1] was “CD4”. Further, the SFC in test [2] is 45.0 and 26.7.
With FGQNTGAIAAAEARY, the T cell phenotype entry in test [1] is “CD4”. Besides, in test [2], the SFC is 108.3 and 276.7.
In the case of APQINFFYYLGEPIV, the T cell phenotype result in test [1] was “undetectable”. This sequence displayed an SFC in test [2] of 20.0.
Take “MSQIMYNYPAMMAHA (listed as Mycobacterium tuberculosis) [Rv0288/Rv3019c]”: in test [3], the “effector memory T cells among tetramer+ cells” value is on record as 4.8-17.2% and the “naïve (CCR7+CD45RA+) among tetramer+ cells” value is recorded as 9.8-37.1%.
As for WFINWYLPISQLFYN, in test [1], the T cell phenotype result is “undetectable”. Further, in test [2], the SFC worked out at 40.0.
Taken in the same sequence, the figures for AATQARAAAAAFEAA were “undetectable” and 25.0.
Taken in the same sequence, the figures for AQNGVQAMSSLGSSL were “CD4” and 46.7.
On to APYVAWMRATAIQAE, for which the T cell phenotype result in test [1] is “undetectable”. For the same sequence, the SFC in test [2] stood at 41.7.
Consider EIVQFLEETFAAYDQ, for which, in test [1], the T cell phenotype result was “CD4 (3×) and undetectable”. The SFC in test [2] was 103.3 and 105.0 and 25.0 and 80.0.
Regarding FGQNTSAIAAAEAQY, in test [1], the T cell phenotype entry is given as “CD4”. Moreover, in test [2], the SFC was 161.7 and 176.7.
Regarding GINTIPIAINEAEYV, in test [1], the T cell phenotype result is “CD4 (2×) and undetectable”. Moreover, the SFC in test [2] was 120.0 and 201.7 and 20.0 and 118.3.
For the sequence ALSAEYAAVAQELSV, in test [1], the T cell phenotype entry is “CD4”. In addition, in test [2], the SFC was 31.7 and 46.7.
AEAPAAAAAPEEQVQ: the T cell phenotype entry in test [1] was “CD4”. The SFC in test [2] is on record as 20.0.
As for AAASWDALAAELASA, in test [1], the T cell phenotype entry is “CD4”. In addition, the SFC in test [2] was 217.5 and 130.0 and 440.8.
YAAALVAMPTLAELA: the T cell phenotype entry in test [1] is on record as “undetectable”. In test [2], the SFC came to 25.0.
Take LALVGFLGGLITGIS: in test [1], the T cell phenotype result was “CD4 and undetectable (3×)”. For the same sequence, in test [2], the SFC was 65.0 (2×) and 36.7 and 25.0.
INLIIHYVDRPGALG: in test [1], the T cell phenotype result is recorded as “undetectable”. Moreover, in test [2], the SFC is 31.7.
With IQARAAALAFEQAYA, in test [1], the T cell phenotype entry is “CD4 and undetectable”. In addition, the SFC in test [2] is 23.3 and 33.3.
For the sequence GWIISNIFGAIPVLG, the T cell phenotype entry in test [1] was “CD4 and undetectable (3×)”. The SFC in test [2] was 195.0 and 41.7 and 58.3 and 26.7.
Consider FGQNTASIAATEAQY, for which, in test [1], the T cell phenotype entry is given as “CD4”. In addition, the SFC in test [2] is 110.0 and 26.7.
For the sequence AQIYQAVSAQAAAIH, in test [1], the T cell phenotype result is “CD4”. Moreover, the SFC in test [2] is 225.0 and 86.7.
For AYGSFVRTVSLPVGA, in test [1], the T cell phenotype result is “CD4”. Further, the SFC in test [2] is 271.7 and 45.0.
In the case of RGKVVLIDFWAYPCI, the T cell phenotype entry in test [1] was “undetectable”. In test [2], this sequence came in with an SFC of 35.0.
Regarding GQNYTYKWETFLTRE, the T cell phenotype entry in test [1] was “CD4 and undetectable (4×)”. Besides, the SFC in test [2] was 26.7 and 66.7 and 50.0 (2×) and 33.3.
For the sequence AELMILIATNLLGQN, in test [1], the T cell phenotype entry is “CD4 and undetectable”. Besides, the SFC in test [2] is 33.3 and 90.0.
With SARLRLLRDRLVEGV, in test [1], the T cell phenotype entry was “CD4 and undetectable”. The SFC in test [2] was 138.3 and 23.3.
Turning to AWMSAAAAQAEQAAT, the T cell phenotype result in test [1] was “undetectable”. This sequence also registered an SFC in test [2] of 25.0.
MHVSFVMAYPEMLAA: the T cell phenotype result in test [1] was “CD4”. The SFC in test [2] is 165.0 and 290.0 and 181.7 and 283.3.
In the case of AAVPAVGAAAGAPAA, the T cell phenotype result in test [1] is “CD4 (2×) and undetectable (2×)”. Moreover, in test [2], the SFC is 203.3 and 28.3 and 20.0 and 30.0.
As to AAIHEMFVNTLVASS, the T cell phenotype entry in test [1] is “CD8 and undetectable (2×)”. For the same sequence, the SFC in test [2] was 41.7 and 160.0 and 26.7 and 61.7.
For LAAAAAWDALAAELY, the T cell phenotype entry in test [1] was “CD4”. In test [2], the SFC is 170.0 and 78.3 and 411.7.
In the case of ALQSHDDVALVSVMW, in test [1], the T cell phenotype entry was “CD4 and undetectable”. For the same sequence, the SFC in test [2] is 28.3 and 61.7.
Turning to YASVEAANASPLQVA, the T cell phenotype result in test [1] is given as “undetectable”. The sequence also came in with an SFC in test [2] of 35.0.
The matching figures for GWSSLGREYAAVAEE: “CD4” and 185.0.
Turning to YVAWMSATAALAREA, in test [1], the T cell phenotype result is “CD4 (3×) and undetectable”. The SFC in test [2] is 150.0 and 83.3 and 58.3 and 25.0.
As to AAGGWDSLAAELATT, the T cell phenotype result in test [1] was “CD4 and undetectable”. In addition, in test [2], the SFC was 130.0 and 31.7.
LLEFAVVLELAILSI: in test [1], the T cell phenotype result is “undetectable”. In test [2], this sequence displayed an SFC of 26.7.
In the case of QVPSASMGRDIKVQF, the T cell phenotype entry in test [1] was “undetectable”. The SFC in test [2] was 53.3 and 48.3.
For the sequence MSFVTTQPEALAAAA, the T cell phenotype entry in test [1] was “CD4”. This sequence also displayed an SFC in test [2] of 121.7.
Taken in the same sequence, the figures for IVQINGRHFDLRAQG were “undetectable” and 26.7.
